Like-named read-outs stand apart in the source and are kept apart here. Positions of bridges follow the written chain, without caps; N, C: chain ends. Residues, ends and D or L forms follow the SMILES beside them. No end group written: not given here.
What was measured:
anti-KLH-peptide 1 IgG = assay: Solid phase RIA, 125I anti-KLH-peptide 1 IgG on BSA-peptide 1; assay type: binding, rabbit
Description: TGF peptide 1 was coupled to keyhole limpet hemocyanin (KLH) or bovine serum albumin (BSA) by thiol/maleimide linkage (King et al. (1979) J. Immunol. Methods 28, pp. 201-206). Carrier-peptide complexes were purified by gel filtration. An average of 60 moles peptide/mole KLH and 20 moles peptide/mole BSA was achieved. Rabbits were immunized with the KLH-peptide 1 conjugate by multiple subcutaneous (s.c.) and intramuscular (i.m.) injections of 2 mg protein in complete Freund's adjuvant. Rabbits were boosted s.c. every two weeks with the immunogen in incomplete Freund's adjuvant. The IgG fraction of the antiserum after 5 boosts was used for immunoassays and radiolabeled using Na^125 I (NEN) and Enzymobeads (Bio-Rad) to 4×10^5 cpm/μg protein. Polyvinyl chloride 96-well plates (Costar) were coated with 200 μg/mL BSA-peptide 1 conjugate and countercoated with 10% normal rabbit serum in phosphate-buffered saline. Plates were incubated for 4 hours at 37° C. with [^125 I]anti-KLH-peptide 1 IgG (50,000 cpm/well) in the presence or absence of inhibitors, washed and individual wells were counted.

[1] = target: T1, EGF receptors on A-431 human epidermoid carcinoma cells (Homo sapiens, UniProt P00533); assay: Radioreceptor assay, 125I-EGF binding to cells (Example XII)
T1 construct: A-431 human epidermoid carcinoma cells or human foreskin fibroblasts (HFF); endogenous in cells; host or cells: A-431 human epidermoid carcinoma cells
Description: (§1) A-431 human epidermoid carcinoma cells or human foreskin fibroblasts (HFF), established from primary cultures, were grown to confluence in 24-well cluster dishes (Costar) in Dulbecco's […] (DMEM, Gibco) containing 10% fetal calf serum (FCS, Hyclone). EGF was radio-iodinated as above to between 4×10^4 and 8×10^4 cpm/ng protein. Cells were incubated at 4° C. for 60 minutes with 1 nM [^125 I]EGF in the presence of inhibitor peptides in DMEM ([…]; 20 mM Hepes) containing 0.1% BSA. Cells were washed 3× with cold buffer, lysed with 0.1 N NaOH, and cell-associated radioactivity was measured (γ-counter). Nonspecific binding assessed in the presence of a 100× excess of cold EGF was less than 5% and 10% of the specific binding for A-431 and HFF cells, respectively.

[2] = target: T2, EGF receptors on human foreskin fibroblasts (HFF) (Homo sapiens, UniProt P00533); assay: as above
T2 construct: human foreskin fibroblasts (HFF), established from primary cultures; endogenous in cells; host or cells: human foreskin fibroblasts (HFF), primary-culture derived
Description: as §1

[3] = tested on: EGF-induced DNA synthesis in quiescent HFF; assay: Cell proliferation assay, inhibition of EGF-induced mitogenesis; assay type: cell-based, human; conditions: 3H-methylthymidine incorporation in quiescent HFF induced by 1 nM EGF
Description: (§2) HFF cells were grown to confluence in 48-well cluster dishes in DMEM-10% FCS and brought to quiescence by starvation for 2 days in DMEM-0.5% FCS. Mitogens and peptides were incubated with cells at 37° C. for 18 hours prior to a 4 hour pulse with 1 μCi [^3 H]methyl-thymidine (NEN) and trichloroacetic acid precipitable radioactivity was determined.

[4] = tested on: TGFα-induced DNA synthesis in quiescent HFF; assay: Cell proliferation assay, inhibition of TGFα-induced mitogenesis; assay type: cell-based, human; conditions: 3H-methylthymidine incorporation in quiescent HFF induced by 1 nM TGFα
Description: as §2

[5] = tested on: antiserum against peptide III; assay: Radioimmunoassay, inhibition of precipitation of 125I-peptide III; assay type: binding, rabbit; conditions: for Relative Inhibitory Activity: half-maximal inhibitory concentration relative to peptide III, standard RIA, > = highest concentration tested; for inhibition of precipitation of 125I-peptide III, in words: compared with peptide III
Description: Rabbits were immunized by subcutaneous injection of 1 mg of conjugate injected subcutaneously at four separate sites. Two booster injections were administered at bi-weekly intervals following the initial injection. The serum used in this study was collected eighty days after the initial injection. An immunoglobulin fraction of this serum was prepared by ammonium sulfate precipitation. The product of antibodies specific for immunizing peptide was monitored with a solid phase enzyme-linked immunoabsorbent assay.
Reactants were mixed in a final volume of 50 microliters of a solution containing: 20 mM sodium phosphate, at pH 7.4; 200 mM NaCl: 40 mM dithiothreitol; 0.1% (w:v) BSA; 0.1% (w:v) NaN3 : ^125 I-peptide III; (10^4 cpm); antiserum at a final dilution of 1/15,000; and other additions, as specified. The reaction was initiated by the addition of antiserum and continued at 23° C. for 90 minutes. An equal volume of 10% formalin-fixed Staphalococcus A (Pansorbin, Calbiochem) was then added and incubation was continued for an additional 30 minutes at 23° C. The immunoadsorbant was removed by sedimentation through a cushion of 10% (w:v) sucrose and the amount of bound ^125 I-peptide III was determined using a gamma counter. Under these conditions, approximately 25% of ^125 I-peptide was bound by antibody in the absence of competitor. The amount of bound peptide III was corrected for non-specific binding measured in the absence of antibody (less than 5% of the total) and expressed as a percentage of maximal binding. Concentrations of competitors were expressed as the amount of peptide III required to give an equivalent inhibition of precipitation.

second degree burns [6] = assay: Wound healing of second degree burns, planimetry (Example VII); assay type: in vivo, Yorkshire piglet; conditions: once a day, after 7 days
Description: Another experiment was performed to measure the effect of the analog of human TGF described above on the healing of second degree burns. The experimental conditions were similar to those described above. However, the following changes were made in the procedures. One Yorkshire piglet was anesthetized with Ketamine and each of 12 burns was made using the template for 11 seconds per burn. After each blister was removed, the wounds were treated once a day with one of the following:
After 7 days, the eschar was removed.

second degree burns [7] = assay: Wound healing test on second degree burns (Example VI); assay type: in vivo, piglets; conditions: Pig 3, right side, 9 days post-burn
fetal rat long bones = assay: Bone resorption in vitro, 45Ca release; assay type: cell-based
Description: Synthetic rat TGF was prepared as described above in Example V. Purity of the protein was confirmed by sodium dodecyl sulfate-polyacrylamide gel electrophoresis, amino acid analysis, and reverse phase high-performance liquid chromatography. The biological activity of TGF preparations and synthetic TGF was monitored by means of an EGF radioreceptor assay. (Todaro et al. (1976) Nature 264, 26.) Bone resorption was assessed by measuring the release of ^45 Ca from previously labeled fetal rat long bones. Pregnant rats at the 18th day of gestation were injected with 200 μCi of ^45 Ca. (Raisz (1975) J. Clin. Invest. 44, 103.) The mothers were killed on the 19th day of gestation, and the fetuses were removed. The mineralized shafts of the radii and ulnae were dissected free of surrounding tissue and cartilage and placed in organ culture. The bones were incubated in BGJb medium (Irvine Scientific) for 24 hours at 37° C. in a humidified atmosphere of 5 percent of CO2 and 95 percent air to allow for the exchange of loosely complexed ^45 Ca. The bones were then cultured for 48 to 120 hours in BGJb medium supplemented with 5 percent fetal calf serum (KC Biologicals) containing control or test substances. […] Statistical significance was determined with Student's t test for unpaired data.

antibody to TGF peptide = assay type: binding; conditions: 125I-labeled TGF peptide
normal rat kidney cells = assay type: cell-based; conditions: on a ng equivalent basis
[8] = A-431 cells, read-out: IC50, inhibition of 125I-EGF binding
[9] = 1 nM 125I-EGF, read-out: Binding IC50 (M) HFF

CC(C)[C@@H]1NC(=O)CNC(=O)[C@H](C(C)C)NC(=O)[C@H](Cc2ccc(O)cc2)NC(=O)CNC(=O)[C@H](CO)NC(=O)[C@H](Cc2c[nH]cn2)NC(=O)[C@@H](N)CSSC[C@@H](C(=O)O)NC(=O)[C@H](CCCNC(=N)N)NC1=O [Peptide 1] (H-CHSGYVGVRC-OH; disulfide 1-10)
inhibition of antibody reaction with BSA-TGF peptide (anti-KLH-peptide 1 IgG): inhibited in a concentration-dependent fashion
IC50 [1]: 8e-05 M
inhibition of 125I-EGF binding to A-431 cells, in words ([1]; at >10^-6 M): partially inhibited
IC50 [2]: 6e-05 M
IC50 [3]: > 10000 nM
IC50 [4]: > 10000 nM

CC(=O)N[C@H]1CSSC[C@@H](C(N)=O)NC(=O)[C@H](CCCNC(=N)N)NC(=O)[C@H](C(C)C)NC(=O)CNC(=O)[C@H](C(C)C)NC(=O)[C@H](Cc2ccc(O)cc2)NC(=O)CNC(=O)[C@H](CO)NC(=O)[C@H](Cc2c[nH]cn2)NC1=O [Peptide 2] (Ac-CHSGYVGVRC-NH2; disulfide 1-10)
binding potency as % of EGF or TGF-α ([1]; A-431 cells): approximately 0.02%
IC50 [1, 8]: 4e-06 M
IC50 [2, 9]: 2e-06 M
IC50 [3]: 5000 nM
IC50 [4]: 3000 nM

Ac-Cys-His-Ser-Gly-Tyr-Val-Gly-Ala-Arg-Cys-OMe (Ac-CHSGYVGARC-OMe; disulfide 1-10 (inferred)) [Peptide 3]
IC50 ([1]; 1 nM 125I-EGF, read-out: Binding IC50 (M) A-431): 4e-07 M
binding potency as % of EGF or TGF-α ([1]; A-431 cells): ~0.2%
IC50 [1, 8]: 4e-07 M
IC50 [2, 9]: 3e-07 M
IC50 [3]: 600 nM
IC50 [4]: 500 nM

CHSGYVGVRC (cysteine pairing not given here) [Peptide II]
highest concentration without inhibition of precipitation of 125I-peptide III [5]: > 1.1 µM
Relative Inhibitory Activity [5]: > 1500

CHSGYVGVRCEHADLLA (cysteine pairing not given here) [Peptide III]
Relative Inhibitory Activity [5]: 1

VVSHFNKCPDSHT [Peptide I]
inhibition of precipitation of 125I-peptide III, in words [5]: ineffective as a competitor
Relative Inhibitory Activity [5]: > 1500

hEGF: Human EGF
PERCENTAGE OF WOUND HEALED Burn A (second degree burns [6]; 0.1 μg/ml in Silvadene): 17 percentage
PERCENTAGE OF WOUND HEALED Burn B (second degree burns [6]; 0.1 μg/ml in Silvadene): 14 percentage
PERCENTAGE OF WOUND HEALED Burn A (second degree burns [6]; 1 μg/ml in Silvadene): 14 percentage
PERCENTAGE OF WOUND HEALED Burn B (second degree burns [6]; 1 μg/ml in Silvadene): 17 percentage

synthetic rTGF: rat TGF of the formula of Example II made by stepwise solid-phase synthesis, purified to homogeneity
approximate percentage of burn epithelialized (second degree burns [7]; 0.1 μg/ml in Silvadene): 90%
approximate percentage of burn epithelialized (second degree burns [7]; 0.5 μg/ml in Silvadene): 65%
approximate percentage of burn epithelialized (second degree burns [7]; 10 μg/ml in Silvadene): 90%
inhibition of precipitation of 125I-peptide III, in words [5]: equally effective
inhibition of antibody reaction with BSA-TGF peptide (anti-KLH-peptide 1 IgG): slightly less
bone resorption during the first 48 hours of bone culture (fetal rat long bones): no significant bone resorption
effective concentrations for bone resorption compared with EGF (fetal rat long bones): about one order of magnitude less than EGF
time required to stimulate bone resorption (fetal rat long bones): at least 72 hours
concentrations that stimulated bone resorption (fetal rat long bones; three separate experiments (Example XIII)): greater than 2 ng EGF equivalents/ml
concentrations that stimulated bone resorption (fetal rat long bones; three separate experiments (Example XIV)): greater than 2 ng of EGF equivalents per milliliter
antigen concentration for 50% displacement of antigen from antibody (antibody to TGF peptide): 0.2-0.3 ng equivalents of EGF
colonies in soft agar (normal rat kidney cells): 154 colonies
